Experimental data published in paper PMC5630639 (Scientific Reports, 2017).

How the values were obtained:
Type in all cases: cell-based, human
MGC-803 cells [1] = experiment: Cell scarification assay; details: time-dependent and concentration-dependent
Experimental: (§1) In a transwell test, the average numbers of migrated cells in fields of control, 0.1 and 0.2 μM 28 treated MGC-803 cells were 29.4, 22.4 and 16.6, respectively (Fig. 6B and C). Based on the results from these tests, we next examined the protein expression of EMT-related makers such as E-cadherenin, N-cadherenin, ZO-1 and Vementin[55].
MGC-803 cells were seeded in 6-well plate until cells grew to confluence. Tips were used to make a scratch on cells. Control and 28 contained culture media without fetal bovine serum were added subsequently after 3 times of washing by PBS. Then the cells were cultured at 37 °C in a humidified incubator containing 5% CO2 and photos taken at 0, 16, 24 and 48 h, respectively.

MCF-7 cells = experiment: CCK-8 proliferation assay, MCF-7; details: Homo sapiens, MCF7; 48 h, CCK-8, mean ± SD
Experimental: All synthesized β-lactam-azide derivatives were evaluated for their antiproliferative activity against three cancer cell lines (MGC-803, MCF-7, A549) using CCK-8 proliferation assay. The well-known anticancer drug CA-4P was used as a control[36],[37].
MGC-803 cell line was obtained from the Chinese Academy of Sciences (Shanghai, China). MCF-7 and A549 were from the National Cell Center, China. MGC-803 cells were cultured in DMEM culture medium (DMEM, Biological Industries, Kibbutz Beit Haemek, Israel). A549 and MCF-7 cells were cultured in 1640 medium (1640, Biological Industries, Kibbutz Beit Haemek, Israel). All medium were supplemented with 10% fetal bovine serum, 100 U/ml penicillin (North China Pharmaceutical group Co.), and 100 µg/ml streptomycin (North China Pharmaceutical group Co.). All cells were cultured at 37 °C in a humidified incubator containing 5% CO2.
Synthesized analogues used in the study were dissolved in 100% cell culture grade DMSO and the final concentration of DMSO as <0.1% for testing on cancer cell lines. Cytotoxicity assays were performed on the human gastric carcinoma cell line MGC-803, the human mammary carcinoma cell line MCF-7, the human lung carcinoma cell line A549. Cells (3500–5000/well) were seeded into 96-well plates in 100 µL of culture medium. The cells were treated in triplicate with a gradient concentration of testing compounds and incubated at 37 °C, 5% CO2 for 48 h. For all cell lines, CCK-8 assay was performed to measure cytotoxic effects. The absorbance was measured using a microplate reader (BioTek Instrument, Inc. Vermont, USA) with a test wavelength of 450 nm. The absorbance levels were corrected against untreated control absorbance values. All experiments were performed in triplicate and SPSS17.0 was used for data analysis to obtain IC50 values.

MGC-803 cells [2] = experiment: Annexin V-FITC/PI apoptosis analysis by flow cytometry; details: 24 h
Experimental: We next evaluated whether 28 induces apoptosis in MGC-803 cells by flow cytometry analysis of propidium iodide (PI) and Annexin V stained cells. […] When MGC-803 cells were incubated with 28 at 0.1, 0.2, and 0.3 μM for 24 h, the percentages of early apoptotic cells were 12.4%, 40.5%, and 49.7%, respectively and those of late apoptotic cells 2.1%, 10.1%, and 9.4%, respectively (Fig. 4A). Bcl-2 family proteins were crucial components of mitochondrial stress-induced cellular apoptosis. Thus, the expression of apoptosis-related proteins was also determined.
An Annexin V-FITC/PI kit (KeyGEN BioTECH, Nanjing, China) was used to detect apoptosis. Cells were seeded in 6-well plates and treated with 0, 0.1, 0.2 and 0.3 µM of 28 for 24 h. Then MGC-803 cells were collected and suspended in binding buffer containing Annexin V-FITC (0.5 mg/mL) and PI (0.5 mg/mL) and incubated in dark for 20 min and analyzed by flow cytometry (Becton, Dickinson and Company, NJ). The apoptosis related proteins of western blot analysis were conducted according to our previously reported method[31],[32].

MGC-803 cells [3] = experiment: Transwell cell migration assay; details: 24 h (control 29.4)
Experimental: as §1
The test was performed in a transwell plate (Corning). MGC-803 cells were added to the upper chamber of a transwell plate. Control and different concentrations of 28 solutions were added to both upper and bottom chambers. Then the transwell plate was cultured at 37 °C in a humidified incubator containing 5% CO2 for 24 h. The next day, all contents in the upper chamber were removed and wiped by cotton buds. Alcohol was used to fix, and the crystal violet was used to stain the transwell for 30 min. After washed by PBS the cell chambers were observed and photos taken. The cell number of the migrated cells through the transwell was calculated by counting 5 visual fields of each group (P < 0.05)[55],[56].

COc1cc(N2C(=O)[C@H](c3cccs3)[C@H]2c2cccc(N=[N+]=[N-])c2)cc(OC)c1OC (relative stereo) [Compound 28, trans-4-(3-azidophenyl)-3-(thiophen-2-yl)-1-(3,4,5-trimethoxyphenyl)azetidin-2-one]
distances of scratches compared to control (MGC-803 cells [1]): obviously increased | IC50 (MCF-7 cells): 0.421 ± 0.047 µM | early apoptotic cells (MGC-803 cells [2]; 0.1 μM): 12.4% | late apoptotic cells (MGC-803 cells [2]; 0.1 μM): 2.1% | early apoptotic cells (MGC-803 cells [2]; 0.2 μM): 40.5% | late apoptotic cells (MGC-803 cells [2]; 0.2 μM): 10.1% | early apoptotic cells (MGC-803 cells [2]; 0.3 μM): 49.7% | late apoptotic cells (MGC-803 cells [2]; 0.3 μM): 9.4% | average number of migrated cells in fields (MGC-803 cells [3]; 0.1 μM): 22.4 | average number of migrated cells in fields (MGC-803 cells [3]; 0.2 μM): 16.6
